± gives the standard deviation of the reports.
Row | Compound | glass transition temperature [°C]
1 | *CC(*)(F)C(=O)OCCC(F)(F)C(F)(F)C(F)(F)C(F)(F)C(F)(F)C(F)(F)C(F)(F)C(F)(F)C(F)(F)C(F)(F)F (repeat unit) | 53.00
2 | *O[Si](*)(C)CCCOc1ccc(C(=O)Oc2ccc(OCCCCCC)cc2)cc1 (repeat unit) | 15.00
3 | *O[Si](*)(C)CCCOc1ccc(C(=O)Oc2ccc(-c3ccc(OC(=O)c4cc(OCC)cc(OCC)c4)cc3)cc2)cc1 (repeat unit) | 62.80
4 | *CCOC(=O)NC1CCC(CC2CCC(NC(=O)OCCOc3ccc(C4(c5ccc(O*)cc5)c5ccccc5-c5ccccc54)cc3)CC2)CC1 (repeat unit) | 140.00
5 | *CCCCCCCCCCOc1ccc(/C=C/c2ccc(OCCCCCCCCCCOP(=O)(O*)OCCCCCCCCCCOc3ccc(/N=N/c4ccc(-c5ccccc5)cc4)cc3)cc2)cc1 (repeat unit) | 50.00
6 | *CC(*)c1ccc([Si](C)(C)OC(C)C)cc1 (repeat unit) | 180.00
7 | *CCCCCOCO* (repeat unit) | -80.00
8 | *C(=O)Nc1ccc(C2(c3ccc(NC(=O)c4ccc5c(c4)C(=O)N(c4cccc(N6C(=O)c7ccc(*)cc7C6=O)c4)C5=O)cc3)c3ccccc3-c3ccccc32)cc1 (repeat unit) | 209.00
9 | *Oc1ccc(NC(=O)/C=C/C(=O)NNC(=O)/C=C/C(=O)Nc2ccc(OC(=O)c3ccccc3C(=O)NNC(=O)c3ccccc3C(*)=O)cc2)cc1 (repeat unit) | 240.00
10 | *CCCCCOC(=O)OCCCCCN1C(=O)c2ccc(C(=O)c3ccc4c(c3)C(=O)N(*)C4=O)cc2C1=O (repeat unit) | 77.00
11 | *c1ccc(Oc2ccc(N3C(=O)c4ccc(-c5ccc6c(c5)C(=O)N(*)C6=O)cc4C3=O)cc2Br)c(Br)c1 (repeat unit) | 275.00
12 | *CC(*)OCCCCCCCC (repeat unit) [Poly(octyl vinyl ether)] | -79.83 ± 0.9
13 | *c1ccc2c(c1)C(=O)N(c1cc(C)c(-c3c(C)cc(N4C(=O)c5ccc(C(*)(C(F)(F)F)C(F)(F)F)cc5C4=O)cc3C)c(C)c1)C2=O (repeat unit) | 346.00
14 | *CC(*)c1cccc(OC(C)=O)c1 (repeat unit) | 76.00
15 | *c1ccc2oc(-c3ccc(-c4nc5cc(C(*)(C(F)(F)F)C(F)(F)F)ccc5o4)cn3)nc2c1 (repeat unit) | 352.00
16 | */N=N/c1ccc(Nc2ccc(C(=O)c3ccc(Nc4ccc(*)cc4)cc3)cc2)cc1 (repeat unit) | 216.42
17 | *C(=O)Nc1ccc(Cc2ccc(NC(=O)c3ccc4c(c3)C(=O)N(c3ccc(/N=N/c5ccc(C)cc5)c(N5C(=O)c6ccc(*)cc6C5=O)c3)C4=O)c(C)c2)cc1C (repeat unit) | 257.00
18 | *Oc1cccc(OC(=O)c2cccc(C(*)=O)c2)c1 (repeat unit) | 147.00
19 | *Oc1ccc(NC(=O)c2cc(NC(=O)c3ccccc3)cc(C(=O)Nc3ccc(*)cc3)c2)cc1 (repeat unit) | 294.50
20 | *CC(*)(C)C(=O)OCCOC(=O)c1cc([N+](=O)[O-])cc([N+](=O)[O-])c1 (repeat unit) | 92.00
21 | *CCCCOC(=O)Nc1ccc(Cc2ccc(NC(=O)OCCCCn3c4ccccc4c4cc(/C=C(\C#N)C(=O)OCCCCCCOC(=O)/C(C#N)=C/c5ccc6c(c5)c5ccccc5n6*)ccc43)cc2)cc1 (repeat unit) | 122.00
22 | *OC(CC(*)=O)C(C)(Cl)Cl (repeat unit) | 109.00
23 | *CC(*)(C)C(=O)OCCCCCCCCCCOc1ccc(OC(=O)c2ccc(OCCCC)cc2)cc1 (repeat unit) | 31.00
24 | */C=C(/*)c1c(C)cc(C(C)(C)C)cc1C (repeat unit) | 200.00

Row | Compound | glass transition temperature [°C]
25 | *C(=O)Oc1ccc(OC(=O)c2ccc3c(c2)C(=O)N(c2ccc(Oc4ccc(N5C(=O)c6ccc(*)cc6C5=O)cc4)cc2)C3=O)c(C(C)(C)C)c1 (repeat unit) | 189.00
26 | *CC(*)C(=O)OCC(C)C (repeat unit) [Poly(isobutyl acrylate) ] | -24 ± 30
27 | *CCOCCOCCOCCOC(=O)c1ccc(-c2ccc(C(=O)O*)cc2)cc1 (repeat unit) | 4.00
28 | *c1nc(-c2ccccc2)nc(N(C)CCCCCCN(*)C)n1 (repeat unit) | 57.00
29 | *CC(*)c1ccccc1COCc1ccccc1 (repeat unit) | 72.00
30 | *Oc1ccc(CC(NC(=O)Cc2ccc(OC(=O)CCCC(*)=O)cc2)C(=O)OCC)cc1 (repeat unit) | 65.00
31 | *Cc1c(C)c(C)c(CNC(=O)CCCCCC(C)CC(=O)N*)c(C)c1C (repeat unit) | 211.00
32 | *c1ccc(C(=O)NCCCCCCCCCCCCNC(=O)c2ccc(-c3nc4ccccc4nc3*)cc2)cc1 (repeat unit) | 154.00
33 | *CC(*)C(=O)OCC(F)(F)C(F)(F)OC(F)(F)C(F)(F)C(F)(F)C(F)(F)F (repeat unit) | -68.00
34 | *Oc1ccc(CC(NC(=O)CCc2ccc(OC(*)=O)cc2)C(=O)OCCCCCC)cc1 (repeat unit) | 51.50
35 | *CCC(C)(C)CC(C)CNC(=O)CCCCC(=O)N* (repeat unit) | 65.00
36 | *CC(*)C(=O)Oc1ccccc1Cl (repeat unit) | 318.00
37 | *Oc1c(C)cc(-c2cc(C)c(OC(=O)CCCCCC(*)=O)c(C)c2)cc1C (repeat unit) | 96.00
38 | */C=N/c1ccc(C(=O)OCCCCOCCCCOCCCCOC(=O)c2ccc(/N=C/c3ccc4c(c3)c3cc(*)ccc3n4CC(CC)CCCC)cc2)cc1 (repeat unit) | 5.20
39 | *CC(OC(=O)C(=O)OCC)C(COC(=O)O*)OC(=O)C(=O)OCC (repeat unit) | 53.80
40 | *CCC(C)(C)CC(C)COC(=O)CCCCC(=O)O* (repeat unit) | -70.00
41 | *c1ccc(Oc2cccc(N3C(=O)c4ccc(Oc5ccc6c(c5)C(=O)N(*)C6=O)cc4C3=O)c2)cc1 (repeat unit) | 232.00 ± 18
42 | *CC(*)C(=O)NC(C)(C)C (repeat unit) [Poly(N-tert-butyl acrylamide)] | 131.42 ± 5.1
43 | *CC(*)(C)C(=O)OC1(C)CCCN(c2ccc(/N=N/c3ccc(/C=C(\C#N)S(C)(=O)=O)cc3)cc2)C1 (repeat unit) | 196.00
44 | *C(=O)c1ccc2nc(-c3ccccc3)c(-c3ccc(-c4nc5ccc(*)cc5nc4-c4ccccc4)cc3)nc2c1 (repeat unit) | 320.00
45 | *NC1CCC(CC2CCC(NC(=O)CCCCCCCCC(*)=O)CC2)CC1 (repeat unit) | 144.00
46 | */C(Cl)=C(/*)CCCCCCCC (repeat unit) | 90.00
47 | *Oc1ccc(S(=O)(=O)c2ccc(Oc3ccc(C(c4ccc(*)cc4)c4ccccc4C(=O)O)cc3)cc2)cc1 (repeat unit) | 223.00
48 | *Oc1ccc(C2(c3ccc(Oc4ccc(C(=O)c5cccc(C(=O)c6ccc(*)cc6)c5)cc4)cc3)CCC3CCCCC3C2)cc1 (repeat unit) | 194.00
